Test results as given in patent US20140106387A1, “METHOD FOR CONTROLLING NAD(P)/NAD(P)H RATIO BY OXIDOREDUCTASE” (MD BIOALPHA CO., LTD., priority 2006, published 2014).

Tests used:
[1] = test system: HepG2 cells; experiment: intracellular NADH / NAD(P)H concentration in HepG2 cells; type: cell-based, human
Method: A water-soluble tetrazolium salt was used to monitor the amount of NAD(P)H through its reduction to a yellow colored formazan dye. The total amount of NAD(P)H within viable cells in the medium was determined periodically by a spectrophotometer. Cells were seeded in 96-well plates (2×10^4 cells/well) and were cultured in 100 μl of a medium containing fetal bovine serum (FBS) and antibiotics for 24 hours. Immediately after treatment of the cells with a candidate compound (e.g., pyrano-1,2-naphthoquinone) at indicated concentrations and a 1/10 volume of a CCK-8 solution (Dojindo Molecular Technology), absorbance measurements were carried out using a spectrophotometer. […] In addition, a medium blank was prepared with only medium and physiological saline. In order to monitor monochromatic fluorescence (350 nm), light was illuminated using a 75 W xenon arc lamp directed via a 10 Hz chopper wheel; specific fluorescence intensity was measured at a wavelength of 405±15 nm and 460±10 nm.

[2] = liver and muscle histology (H&E, EM) in ob/ob mice; type: in vivo, mouse; details: 56 days
Method: The removed tissues were cut into a proper size, fixed in 10% formalin, washed with water, and embedded in paraffin to prepare blocks, according to a conventional method. The thus-prepared blocks were sectioned into a 4 μm thickness and subjected to hematoxylin and eosin (H&E) staining for observation of general changes.
For observation of cellular microstructures, the removed tissues were sliced into a size of 1 mm^3, pre-fixed in 2.5% glutaraldehyde (0.1M PBS, pH 7.4, 4° C.) for 2 to 4 hours, washed, and post-fixed in a 1% osmium tetroxide solution for 2 hours. Then, according to a conventional method, the tissues were dehydrated with serial concentrations of ethanol and the solvent was replaced with propylene oxide. The tissues were embedded in an epoxy resin mixture, and the embedded tissues were subjected to thermal polymerization to prepare blocks. The thus-prepared blocks were sectioned into a thickness of 0.5 to 1 μm using a ultramicrotome and stained with toludine blue. Observation sites were selected under a light microscope and the tissues were ultrasectioned to a thickness of 60 to 70 nm. The ultrasectioned specimens were subjected to dual staining of uranyl acetate and lead citrate and were observed under a transmission electron microscope (H-600, Hitachi, Japan) at an accelerating voltage of 75 kV.
In order to examine fat accumulation in the liver tissue, animals were laparotomized 56 days after administration of pyran-1,2-naphthoquinone, and H&E staining and EM examination were performed on the liver tissue.

[3] = test system: HepG2 cells; experiment: mitochondrial oxygen consumption (Clark-type oxygen electrode) in HepG2 cells; type: cell-based, human
Excerpt: FIG. 22 is a graph showing monitoring results of mitochondrial oxygen consumption using a Clark-type oxygen electrode;

[4] = test system: ACC, CPT, HAD; experiment: enzyme assays, malonyl-CoA content and fatty acid oxidation in DIO mice; type: in vivo, mouse
Method: For Enzyme assays, cytoplasm was extracted from mouse tissues. Dicoumarol-sensitive NQO1 activity was determined by a conventional method known in the art: This method is based on an absorbance decrease at 600 nm due to bioreduction of DCPIP. Total AMPK activity was determined with a known method using synthetic “SAMS” peptides and [γ-^32P] ATP. ACC activity was determined by quantifying fixation of ^14CO2 to the acid-stable product in the presence/absence of citrate (2 mM) as an allosteric activator of ACC. CPT (carnitine palmitoyl transferase) activity was measured in L6 myoblasts and soleus muscle by a known method. HAD (3-hydroxyacyl-CoA dehydrogenase) activity was determined in L6 myoblasts and soleus muscle by monitoring conversion of acetoacetyl-CoA into L-3-hydroxybutyryl CoA and the concomitant oxidation of NADH into NAD^+. The reaction was monitored at 340 nm by a known method.
[^14C]palmitoyl-CoA (Perkin Elmer) oxidation was determined in L6 myoblasts and soleus muscle by a known method using labeled CO2 and 0.2 mL of benzethonium chloride solution.
Contents of Malonyl-CoA were determined by a known method, e.g. HPLC. Acyl-CoA esters were separated by HPLC using 0.2 M ammonium acetate-containing acetonitrile/water (1.75:98.25). Samples were washed with 20 min, and subjected to 100 min linear gradient elution from acetonitrile/water (10:90) containing 0.2 M ammonium acetate.
That is, such facts mean that chronic treatment of βL can accelerate mitochondrial oxidative phosphorylation and enhance adaptive mitochondrial biogenesis. Therefore, βL can be used as a therapeutic agent for metabolic diseases.

[5] = test system: HEK293 cells; experiment: intracellular ATP, ADP and AMP levels by LC-MS in HEK293; type: cell-based, human; details: HEK293 cells having no NQO1 activity, 2 hours
Method: Samples were analyzed using an Agilent 1100 series LC/MSD system equipped with G1322A degasser, G1312A binary pump, G1315A photo-diode-array detector, 59987A electrospray interface and 5989B mass spectrometer. ES-MS analysis was performed using an Agilent 5989 electrospray (ES) mass spectrometer (MS) with an Agilent Atmospheric Pressure Ionization (API) interface fitted with a hexapole ion guide. Chromatogram was automatically integrated with the aid of Chemstation software, and concentrations were determined using a standard calibration curve.
Acid extraction was used for analysis of an AOPN concentration in the cells and liver tissues. 400 μl of 6% HClO4 was added to the cells cultured in a 100 mm dish, whereas a two-fold volume of 6% HClO4 was added to the liver tissues which were then immediately homogenized. Each mixture was centrifuged at 14,000 g and 4° C. for 10 min, and the resulting supernatants were neutralized by addition of 1 M borate buffer (pH 11) containing 4 mM EDTA in an amount of 75%. Samples were aliquoted and stored at a temperature of −80° C.
A mobile phase was 100 mM ammonium acetate:MeOH (98:2, v/v), and preparations were filtered through a 0.22-μm Millipore filter. A flow rate was set to 0.8 mL/min and detection was made at 254 nm. Separation was carried out using a ZORBAX Bonus-RP C18 column (3.5 μm, 4.6×150 mm I.D., Waters, USA). […]

[6] = muscle of DIO mice vs control group

CC1(C)CCC2=C(O1)c1ccccc1C(=O)C2=O [βL, 2,2-Dimethyl-3,4-dihydro-2H-benzo[h]chromene-5,6-dione]
decrease of NAD(P)H ([1]; HepG2 cells having NQO1 activity, NAD(P)H fluorescence): about 40% | intracellular NADH concentration ([1]; HepG2 having an NQO1 activity, treatment for 2 hours, real-time measurement): concentration-dependent decrease of NADH | EM examination on liver tissues [2]: remarkably decreased fat vacuoles and glycogen stores | EM examination on muscle tissue of animal limbs [2]: recovery of normal mitochondrial morphology | H&E staining on liver tissue [2]: almost all fat vacuoles have disappeared | mitochondrial oxygen consumption [3]: increased | 14C-palmitoyl CoA β-oxidation [4, 6]: significantly increased | CPT activity [4, 6]: significantly increased | HAD activity [4, 6]: significantly increased | ACC activity ([4]; βL-treated DIO mice): decreased | malonyl CoA level ([4]; βL-treated DIO mice): decreased | intracellular ATP level [5]: no significant changes in the intracellular ATP level
